In patent US8906865B2, “Treatment of inflammation and/or endotoxic shock” (ISIS Innovation Limited, priority 2007, dated 2014):

B1: Chemerin: 140 amino acid mouse Chemerin protein of Sequence ID no: 34 (protein, listed as Mus sp.)
chain: TVGTEPELSETQRRSLQVALEEFHKHPPVQLAFQEIGVDRAEEVLFSAGTFVRLEFKLQQTNCPKKDWKKPECTIKPNGRRRKCLACIKMDPKGKILGRIVHCPILKQGPQDPQELQCIKIAQAGEDPHGYFLPGQFAFS

How the values were obtained:
Type in all cases: cell-based, mouse
[1] = tested on: PMθ (peritoneal macrophages); assay: Checkerboard analysis (chemotaxis versus chemokinesis); conditions: for Chemotaxis versus chemokinesis (FIG. 13): C140 10-1000 pM, C15m 10-1000 pM
Method: Checkerboard analysis allows differentiation between chemotaxis and chemokinesis. Chemotaxis is indicated by migration toward a higher concentration of chemoattractant in the lower well. Chemokinesis refers to increased non-directional cell movement and occurs regardless of the concentration gradient present. Checkerboard analysis was performed by pre-incubating cells with C140 (10-500 pM) or C15m (10-1000 pM) and allowing them to migrate towards C140 (10-1000 pM) or C15m (10-1000 pM), respectively in the lower well to form a checkerboard of concentrations.
More specifically, PMθ were recruited following a 4 day peritoneal stimulation with BioGEL beads. Peritoneal cavities of male C57B16/J mice were lavaged with 5 ml PBS-2 mM EDTA. Cells were centrifuged and resuspended in RPMI supplemented with 0.5% BSA and 25 mM Hepes. Cells (0.5×10^6) were incubated with C140 or C15m for 30 mins before the chemotaxis assay and then allowed to migrate towards chemoattractant in the bottom well over 4 h. Filters were fixed in 4% formalin, then nuclei were stained with DAPI and visualised. Serum free media (SFM) was used as a negative control (−/−) and the CC chemokine RANTES as a positive control (25 ng/ml). The bar graphs in FIG. 13 show the mean Migration Index±SEM for each treatment group. Each bar represents at least triplicate wells and at least 3 pictures taken per treatment. p<0.001 *** relative to SFM-treated wells.

[2] = tested on: PMΦ (peritoneal macrophages); assay: Secondary chemotaxis assay towards conditioned media from treated macrophages; conditions: relative to LPS/IFNγ conditioned medium
Source text: Given the well established role of MΦ-derived chemoattractants in the recruitment of immune cells during inflammation (Glabinski, A. R., et al., (1998). Neuroimmunomodulation 5:166-171; Huang, D. J. et al., (2001). J. Exp. Med. 193:713-726), conditioned media was used from untreated MΦ and MΦ treated with chemerin+LPS/IFNγ, C15+LPS/IFNγ and LPS/IFNγ alone in chemotaxis assays to assess how suppression of MΦ activation by chemerin and the synthetic C-terminal peptide, C15 might affect further MΦ recruitment (See FIG. 4H).
Conditioned media from macrophages treated with C140+LPS/IFNγ, C15m+LPS/IFNγ, C17m+LPS/IFNγ and LPS/IFNγ alone were used in secondary chemotaxis assays to assess the potential pathophysiological repercussions associated with suppression of macrophage activation by C140 and its C-terminal peptides.
Cells (0.5×10^6) were allowed to migrate towards chemoattractant (Chemerin peptides) or conditioned media in the bottom well of a modified Boyden chamber over 4 h. Serum free media (SFM) was used as a negative control. Filters were fixed in 4% formalin, then nuclei were stained with DAPI and visualised. Bar graphs indicate mean Migration Index (Chemoattractant % threshold area/SFM % threshold area)±SEM for each treatment group. Each bar represents at least triplicate wells and 6 pictures taken per treatment. p<0.001 ***; p<0.01 ** significance is relative to LPS/IFNγ conditioned media unless otherwise stated. AB refers to anti-murine Chemerin antibody.
(§1) Cell migration was assessed by use of transwell membranes (ChemoTX, 6-mm diameter, 8-μm pore size). Briefly, BioGEL-elicited cells were harvested and placed on transwell membranes (250 000 cells/membrane in RPMI supplemented with 25 mM Hepes and 0.1% bovine serum albumin. Cells were allowed to migrate toward Chemerin peptides (1 pM-100 nM) for 4 h. Signal transduction via G protein-coupled receptors was blocked by preincubating cells with pertussis toxin (PTX, 200 ng/ml, Sigma-Aldrich) for 30 mins before placing cells on transwell membranes. Migrated cells on the underside of membranes were fixed (3% formaldehyde) and stained with DAPI. Migration was quantified as total pixel count of DAPI stained nuclei under the confocal microscope (2 photos/membrane and a minimum of 3 replicate wells per treatment). Images were analyzed using Metamorph Offline software to determine percentage threshold areas (TA) occupied by migrated cells. Migration indices were obtained by dividing treatment TA by serum-free media TA. For secondary chemotaxis assays ChemoTx 3-mm diameter, 8-μm pore membranes were used with 50 000 cells/membrane.

[3] = tested on: PMΦ (peritoneal macrophages); assay: Macrophage chemotaxis assay (modified Boyden chamber); conditions: for Macrophage chemotactic activity: migration over 4 h, compared with C140 and RANTES 25 ng/ml
Method: PMθ (0.5×10^6) were allowed to migrate towards chemoattractant (Chemerin140 or Chemerin peptides) in the bottom well of a modified Boyden chamber over 4 h. Filters were fixed in 4% formalin, then migrated cell nuclei were stained with DAPI and visualised. Serum free media (SFM) were used as a negative control and the macrophage chemoattractant RANTES (25 ng/ml; 3 nM) as a positive control. The graphs indicate mean Migration Index (Chemoattractant % threshold area/SFM % threshold area)±SEM for each treatment group (n=5-6). p<0.001 ***; p<0.01 **; p<0.05 * relative to SFM treated wells.
PMθ were recruited following a 4 day peritoneal stimulation with BioGEL beads. Peritoneal cavities of male C57B16/J mice were lavaged with 5 ml PBS-2 mM EDTA. Cells were centrifuged and resuspended in RPMI supplemented with 0.5% BSA and 25 mM Hepes. Cells (0.5×10^6) were allowed to migrate towards chemoattractant (C140, C17m or C17m+C140) in the bottom well over 4 h. Filters were fixed in 4% formalin, then nuclei were stained with DAPI and visualised. Serum free media was used as a negative control (−/−). Cells were preincubated with Pertussis toxin (PTX) for 30 mins before the chemotaxis assay. The bar graphs in FIG. 11 show the mean Migration Index±SEM for each treatment group. Each bar represents at least triplicate wells and at least 3 pictures taken per treatment. p<0.001 ***; p<0.01 **; p<0.05 * relative to SFM treated wells unless otherwise stated.
as §1

[4] = tested on: PMθ stimulated with Zymosan; assay: TNFα secretion by murine macrophages stimulated with Zymosan (ELISA); conditions: 1 pM pre-treatment 1 h, Zymosan 15 h
Method: PMθ were cultured under various conditions: Untreated; Zymosan for 15 h; Chemerin (1 pM) pre-treatment for 1 h+Zymosan for 15 h. The bar graphs show mean expression of TNFα as determined by ELISA±SEM. Experiments were performed with triplicate determinations for each treatment. Representative data from three independent experiments employing cells from different donors are shown in FIG. 12. p<0.001 ***; p<0.01 ** relative to Zymosan-treated samples. Dexa refers to dexamethasone ([…]), nd refers to below the lower limit of detection (0.25 ng/ml).

| Molecule | Induction of macrophage chemotaxis relative to C140 [1] | Chemotaxis versus chemokinesis (FIG. 13) [1] | Macrophage chemotaxis towards conditioned media from treated + LPS/IFNγ macrophages (FIG. 5) [2] | Reduction of MΦ chemotaxis towards conditioned media from treated + LPS/IFNγ macrophages (FIG. 4H) [2] [%] | Macrophage chemotactic activity [3] | Concentration of maximal macrophage migration ([3]; tested 1 pM-100 nM) [pM] | Suppression of Zymosan-induced TNF expression (FIG. 12) [4] [%] | Effect of co-administration on C140-induced macrophage migration (FIG. 11) ([3]; C17m + C140 in bottom well, 4 h) |
| --- | --- | --- | --- | --- | --- | --- | --- | --- |
| AGEDPHGYFLPGQFA (listed as Mus sp.) [C15] | much weaker inducer of macrophage chemotaxis | elicit true chemotaxis rather than chemokinesis | reduced chemotaxis | 55 | little chemotactic activity | 100 | 21 | – |
| AGEDPHGYFLPGQFAFS (listed as Mus sp.) [C17m] | – | – | reduced chemotaxis | – | no chemotactic activity | – | 30 | did not appear to affect macrophage migration to C140 |
| B1 | – | elicit true chemotaxis rather than chemokinesis | reduced chemotaxis | 49 | – | – | – | – |
